According to patent US6500794B1, “Granulated bleaching activator” (Kao Corporation, priority 1999, dated 2002):

Test: Solubility of component (a) in aqueous nonionic surfactant solution, requirements (1) and (2)
Format: physicochemical
Settings: 10° C., stirred five minutes; for solubility of the component (a), Condition (2): 0.1 g component (a) (A-1) in 0.25 g nonionic surfactant / 500 ml water; for solubility of the component (a), Condition (1): 0.1 g component (a) (A-1) in 10 g nonionic surfactant / 500 ml water
Protocol: (1) when 0.1 g of the component (a) is added to an aqueous solution produced by dissolving 10 g of the component (b1) in 500 ml of water at 10° C. and the mixture was stirred for five minutes, the solubility of the component (a) just after the stirring is 50% by weight or more; and
Herein, the solubility was measured using the following method.
Method for Measuring Solubility
1 l glass beaker (cylinder type; inside diameter: 105 mm, height: 15 cm) was charged with 500 ml of an aqueous solution in which the component (b1) was dissolved in an amount corresponding to the requirements (1) and (2) and the solution was stirred (using a magnetic stirrer; a cylindrical stirrer piece with a diameter of 15 mm and a length of 52 mm, 200 rpm) in a thermostat kept at 10° C. At the stage in which the temperature of the solution reached 10° C., the powdery component (a) having a bulk density of […] and containing 10% by weight or less of particles with a grain size of 125 μm was added thereto in a prescribed amount and then the solution was stirred for 5 minutes. Thereafter, the solution was filtered through a membrane filter (Cellulose Nitrate A045A047A, 0.47 μm, manufactured by […]) and the content of the component (a) in the filtrate was determined by using high performance liquid chromatography to determine the solubility by the following formula. [formula]
Granulated Bleaching activator having the compositions shown in Table 2 were prepared by using the bleaching activator A-1 and nonionic surfactants B-1 and B-2 described below according to the method described below. Also, granulated bleaching activators were prepared in the same manner as above by using B′-1, B′-2 and B′-3 as comparative nonionic surfactants. Each solubility of these nonionic surfactants in the conditions (1) and (2) are shown below.

solubility of the component (a), Condition (2)	solubility of the component (a), Condition (1)	Substance
7%	79%	C12H25O—(EO)5—(PO)2—(EO)5—H [Example B-1]
3%	46%	C12H25O—(EO)15—H [B′-3]
0.5%	81%	C12H25O—(EO)10—(PO)4—H [Example B-2]
32%	82%	C12H25O—(EO)7—H [B′-1]
